Data on five molecules can be found in US20030108964A1, “Caspase-inhibitory-factor(cif)and uses thereof” (priority 2002, published 2003).

In one test the test system is R-Csp-6. Briefly: R-Csp-6 specific activity in presence of treated MCF7 extract. The format is cell-based, human. The settings on record: MCF7 extract treated 48 hours; for R-Csp-6 Specific Activity: control 6.15 (0.7); for R-Csp-6 activity remaining (% of control): control 100%. How it is done:
After treatment, neuron proteins were extracted in caspase lysis buffer (50 mM Hepes pH 7.4, 0.1% CHAPS, 1 mM DTT, 0.1 mM EDTA) for 10 minutes on ice followed by microcentrifugation to remove insoluble material. Protein concentration was determined by bicinchoninic acid (BCA) assay (Pierce). […] Based on an AFC or AMC standard curve, the amount of released AFC or AMC was measured and the specific activity of the caspase determined as nmoles released AFC or AMC/pg protein/minute.

Test [1] relates to R-Csp-6-mediated apoptosis in primary cultures of human neurons. Briefly: TUNEL cell death of primary human neurons microinjected with recombinant active caspase-6. The format is cell-based. The settings on record: for effect on 17-β-estradiol neuroprotective effect against caspase-6: 10 nM added to 17-β-estradiol. How it is done:
(§1) Primary cultures of neurons were established from 12-14 week old foetal brains, according to ethical regulations of the Medical Research Council of Canada and approved by McGill University. Institutional Review Board. Briefly, cortical and subcortical brain tissue is minced, dissociated in 0.25% trypsin for 15 minutes at 37° C. Trypsin is inactivated with 10% serum and 0.1 mg/ml deoxyribonuclease I added before triturating to completely dissociate the cells. The mixture is successively passed through 130 μm and 70 μm filters, and cells plated at 3×10^6/ml on poly-L-lysine coated tissue culture dishes or ACLAR™ (33C; 5 mm; Allied Chemical Corp.) coverslips in phenol-free minimal essential media in Earle's balanced salt solution containing 0.225% sodium bicarbonate, 1 mM sodium pyruvate, 2 mM L-glutamine, 0.1% dextrose, 1×antibiotic Pen-Strep (all products from Gibco-BRL) and 5% decomplemented fetal bovine serum (Hyclone).
The cells attach rapidly and establish intricate neuritic networks within 3 days. Fluorodeoxyuridine (FdU) is added at 1 mM to prevent proliferation of dividing cells. Typically, the culture is composed of 90-95% neurons and 5-10% astrocytes that survive in culture for 4-6 weeks. Experiments on neurons and astrocytes were conducted at 10 days of culture.
Glass micropipettes of 1.0 mm OD and 0.5 mm ID thin-walled glass capillaries with microfilaments (Borosilicate with filament MTW100F-4, World Precise Instrument Co.) were pulled with a Flaming/Brown micropipette puller (P-87) with a tip diameter of […]. Recombinant active caspase-6 or caspase-3 (R-Csp-6 and R-Csp-3 from Pharmingen) were prepared in caspase active buffer containing 20 mM piperazine-N,N′-βis-(2-ethanesulfonic acid) (PIPES), 100 mM NaCl, 10 mM dithiothreitol (DTT), 1 mM EDTA, 0.1% 3-[(3-cholamidopropyl)-dimethylammonio]-2-hydroxy-1-propanesulfonic acid (CHAPS), 10% sucrose, pH 7.2. R-Csp-6 was co-injected with Dextran Texas Red (DTR; at 100 μg/ml) (Cedarlane Laboratories Ltd.) as a fluorescent marker to recognize injected neurons. […] Microinjections were done with the Eppendorf Microinjector 5246 and MIS-5000 Burleigh micromanipulator; injection pressure of 100 hPa, compensation pressure of 50 hPa, and injection time of 0.1 s. The injected volume was 1 nl/shot.
Neurons were fixed in fresh 4% paraformaldehyde/4% sucrose in PBS and permeabilized with 0.1% Triton X-100 in 0.1% sodium citrate. Cell death was detected by TUNEL (TdT-mediated dUTP Nick End Labeling) using the Cell Death Kit I (Roche Molecular Biochemicals) as described by the manufacturer. The percentage of neuronal cell death was determined by the ratio of the number of DTR-TUNEL-double-positive neurons over the total number of DTR-positive neurons.
(§2) All were obtained from Sigma and dissolved as stock solutions in 100% ethanol. Dilutions of 1/1000 was made in culture media immediately before use. The media was changed with fresh solution every 48 hours. Controls received an equivalent amount of ethanol.
(§3) Cycloheximide (Sigma) was made at 1 mg/ml in distilled-water and diluted at 5 and 20 μg/ml in culture media before treatment. To assess the efficiency of cycloheximide as an inhibitor of translation at these concentrations, neurons were labeled with 100 μCi/ml of ^35S-methionine (Easy Tag NEN-DUPONT) for 6 hours in the absence or presence of cycloheximide. Proteins were extracted in NP-40 lysis buffer, immunoprecipitated and separated by 10% polyacrylamide gel electrophoresis. To test the effect of cycloheximide on the neuroprotective effect of 17-β-estradiol, neurons were microinjected with R-Csp-6 and incubated with 10 nM 17-β-estradiol in the absence or presence of cycloheximide for 48 hours.

Test [2] relates to recombinant active caspase-6 (R-Csp-6). Briefly: CIF activity: protein extracts of treated neurons added to recombinant active caspase-6 in vitro (Ac-VEID-AFC). The format is cell-based, human. How it is done: as §1, §2
as §3, with “hours. To test the effect of cycloheximide on 17-β-estradiol induction of CIF, neurons were incubated with 10 nM 17-β-estradiol in the absence or presence of cycloheximide for 6 hours.” for “hours.”
After treatment, neuron proteins were extracted in caspase lysis buffer (50 mM Hepes pH 7.4, 0.1% CHAPS, 1 mM DTT, 0.1 mM EDTA) for 10 minutes on ice followed by microcentrifugation to remove insoluble material. Protein concentration was determined by bicinchoninic acid (BCA) assay (Pierce). Proteins (10 μg/100 μl assay) were added to 10 ng recombinant active caspase (Pharmingen or BioMol) in caspase assay buffer (20 mM Pipes, 30 mM NaCl, 10 mM DTT, 1 mM EDTA, 0.1% CHAPS, 10% sucrose pH 7.2) and 68.5 μM Ac-VEID-AFC for caspase-6, Ac-DEVD-AFC for caspase-3 and caspase-7, and Ac-IETD-AMC for caspase-8 (BioMol). The caspase-6 activity was measured at 37° C. every 2 minutes for 1 hour to determine the linear range of activity. Based on an AFC or AMC standard curve, the amount of released AFC or AMC was measured and the specific activity of the caspase determined as nmoles released AFC or AMC/pg protein/minute.

For test [3], the system named is Endogenous Csp-6 in human breast cancer cell line, MCF7. The experiment in a line: Endogenous Csp-6 specific activity in treated MCF7 extract. The format is cell-based. The settings on record: MCF7 extract treated 48 hours; for Endogenous Csp-6 Specific Activity: control 6.34 (0.02); for Csp-6 activity remaining (% of control): control 100%.
Test [4] deals with Human astrocytes extracts, CIF activity. Briefly: CIF activity in extracts of treated human astrocytes. Type of test: cell-based. The settings on record: 10 nM, 6 hours.
Test [5] deals with caspase-3-mediated astrocytic cell death. Briefly: TUNEL cell death of human astrocytes microinjected with caspase-3. The format is cell-based. The following applies: 10 nM.
In test [6] the test system is endogenous neuronal caspase-6. The experiment in a line: Endogenous caspase-6 activity in treated neurons. Type of test: cell-based, human. The settings on record: neurons treated for 48 hours. How it is done:
as §1, with “(Hyclone). […] All were obtained from Sigma and dissolved as stock solutions in 100% ethanol. Dilutions of 1/1000 was made in culture media immediately before use. […] Protein concentration was determined by bicinchoninic acid (BCA) assay (Pierce). […] Based on an AFC or AMC standard curve, the amount of released AFC or AMC was measured and the specific activity of the caspase determined as nmoles released AFC or AMC/pg protein/minute.” for “(Hyclone).”

Test [7] concerns protein translation in neurons. The experiment in a line: 35S-methionine labelling of neurons to assess inhibition of translation. The settings on record: 5-20 μg/ml. Type of test: cell-based, human. How it is done:
as §3, with “hours. To test the effect of cycloheximide on 17-β-estradiol induction of CIF, neurons were incubated with 10 nM 17-β-estradiol in the absence or presence of cycloheximide for 6 hours.” for “hours.”

The mark [8] stands for this setting: 10 μM with 10 nM 17-β-estradiol.

For the molecule `C[C@]12CC[C@@H]3c4ccc(O)cc4CC[C@H]3[C@@H]1CC[C@H]2O` [17-α-estradiol], in the test on R-Csp-6 (10 nM), the “R-Csp-6 Specific Activity” value was 7.19 (0.01) nmoles/μg protein/min and the “R-Csp-6 activity remaining (% of control)” value is listed as 117%. For the same molecule, the “protection against R-Csp-6” value in test [1] (10 nM, 48 hours, 5 pg R-Csp-6/cell) is given as “do not protect significantly”. Further, the “inhibition of active caspase-6 by extracts from treated neurons” value in test [2] (1, 10, or 100 nM, neurons treated 6 hours) is “neither 1, 10, or 100 nM 17-α-estradiol significantly inhibit active caspase-6”. Besides, in test [3] (10 nM), the “Endogenous Csp-6 Specific Activity” value was 7.13 (0.06) pmoles/μg protein/min and the “Csp-6 activity remaining (% of control)” value is 112%.
Regarding `C[C@]12CC[C@@H]3c4ccc(O)cc4CC[C@H]3[C@@H]1CC[C@@H]2O` [17-β-estradiol], the “CIF activation in astrocytes” value in test [4] is recorded as “CIF is not activated in astrocytes”. Also, the “prevention of caspase-3 mediated astrocytic cell death” value in test [5] is listed as “could not prevent”. In addition, the “R-Csp-6 Specific Activity” value is listed as 3.82 (0.04) nmoles/μg protein/min with R-Csp-6 (1 nM), 3.25 (0.03) nmoles/μg protein/min with R-Csp-6 (10 nM) and 4.30 (0.1) nmoles/μg protein/min with R-Csp-6 (100 nM). The “R-Csp-6 activity remaining (% of control)” value is given as 62% in the test with R-Csp-6 (1 nM), 53% in the test on R-Csp-6 (10 nM) and 70% in the test with R-Csp-6 (100 nM). The “level of apoptosis of microinjected neurons (TUNEL)” value in test [1] (10 nM, 48 hours, 5 pg R-Csp-6/cell, R-Csp-6 alone 50%) was found to be 20%. In addition, in test [1] (10 nM, time study, until 8 days), the “protection against caspase-6” value is listed as 50%. Also, the “protection against caspase-6 mediated apoptosis” value in test [1] (0.01 or 0.1 nM) is recorded as “not 0.01 or 0.1 nM”; in test [1] (1 to 100 nM), “significant protection”. For the same molecule, the “exposure time at which neuronal apoptosis is decreased to maximal levels” value in test [1] (hormone washed away, incubated until 48 hours) was 10 min. Moreover, the “endogenous caspase-6 activity in treated neurons” value in test [6] is recorded as “inhibits endogenous caspase-6 activity”. In test [2], the “inhibition of recombinant active caspase-6 in vitro by neuronal protein extracts from treated neurons” value is on record as “inhibit recombinant active caspase-6 in vitro”. Also, the “inhibition of the activity of R-Csp-6 by extracts from treated neurons” value in test [2] (neurons treated 6 hours, 1-100 nM, 10 μg protein) is recorded as 40-60%. In test [2] (time response curve), the “time of exposure at which CIF activity is maximal” value amounted to 1 h. In addition, in test [2] (time response curve), the “time of exposure to neurons until CIF activity is induced” value is at most 10 min. Further, the “Endogenous Csp-6 Specific Activity” value in test [3] (1 nM) was 4.02 (0.02) pmoles/μg protein/min; in test [3] (10 nM) it was 4.84 (0.03) pmoles/μg protein/min; in test [3] (100 nM) it was 5.06 (0.01) pmoles/μg protein/min. Also, the results for the “Csp-6 activity remaining (% of control)” value in test [3] (1 nM), in test [3] (10 nM) and in test [3] (100 nM) were 63%, 76% and 80%, respectively.
Take `CC/C(=C(/CC)c1ccc(O)cc1)c1ccc(O)cc1` [DES, diethylstilbesterol]: in test [1] (48 hours), the “effect on 17-β-estradiol neuroprotective effect against caspase-6” value was “inhibits”. Further, in test [1] (10 nM, alone, 48 hours), the “induction of neuroprotection in neurons” value was “nor induce neuroprotection”. The “effect on 17-β-estradiol induction of CIF” value (“effect … of CIF” below) in test [2] (10 nM added to 17-β-estradiol) is recorded as “inhibits 17-β-estradiol induction of CIF”. Also, the “induction of CIF in neurons” value in test [2] (10 nM, alone) was “Neither DES nor EE induce CIF”.
As for `C[C@@H]1C[C@@H]([C@H](O)CC2CC(=O)NC(=O)C2)C(=O)[C@@H](C)C1` [cycloheximide], the “effect on 17-β-estradiol-mediated neuroprotection” value in test [1] (5-20 μg/ml with 10 nM 17-β-estradiol, 48 hours) is “no effect”. In addition, in test [2] (5-20 μg/ml with 10 nM 17-β-estradiol, 6 hours), the “effect … of CIF” value is “no effect”. In addition, the “protein translation in neurons” value in test [7] was “greatly inhibit protein translation”.
As to `CC/C(=C(\c1ccccc1)c1ccc(OCCN(C)C)cc1)c1ccccc1` [tamoxifen], in test [1] (48 hours), the “effect on 17-β-estradiol neuroprotective effect against caspase-6” value was “inhibits 17-β-estradiol effect”. For the same molecule, in test [1] (setting [8]), the “block of neuroprotective function of 17-β-estradiol against caspase-6” value is recorded as “efficiently blocked”. Besides, the “effect … of CIF” value in test [2] (10 nM added to 17-β-estradiol) is recorded as “inhibits 17-β-estradiol effect”. In test [2] (setting [8]), the “block of 17-β-estradiol induced CIF activation” value is listed as “efficiently blocked”.
